Target: Heat shock protein HSP90 (Homo sapiens, UniProt P07900+P08238)
Experiment: Binding affinity to recombinant N-terminal Hsp90 (unknown origin) by SPR method
Format: protein assay

Kd | Structure (SMILES)
11.5 nM | Cc1cccc(Cc2n[nH]c3cc(O)c(C(=O)N(C)c4ccc(COCCN(C)C)cc4)cc23)c1
51.8 nM | CC(=O)N1CCc2ccc(N(C)C(=O)c3cc4c(Cc5cccc(C)c5)n[nH]c4cc3O)cc21
5.4 nM | CCCc1n[nH]c2cc(O)c(C(=O)N(C)c3ccc(N4CCOCC4)cc3)cc12
155.3 nM | Cc1cccc(Cc2n[nH]c3cc(O)c(C(=O)N(C)c4ccc(Br)cc4)cc23)c1
7.8 nM | CN(C(=O)c1cc2c(CC3CCCC3)n[nH]c2cc1O)c1ccc(N2CCOCC2)cc1
33.4 nM | Cc1cccc(Cc2n[nH]c3cc(O)c(C(=O)N(C)c4ccc(CN5CCOCC5)cc4)cc23)c1
32.5 nM | Cc1cccc(Cc2n[nH]c3cc(O)c(C(=O)N(C)c4ccc(OCCCC#N)cc4)cc23)c1
17.2 nM | COc1ccc(N(C)C(=O)c2cc3c(Cc4cccc(C)c4)n[nH]c3cc2O)cc1Cl
50.9 nM | CC(=O)N1CCc2cc(N(C)C(=O)c3cc4c(Cc5cccc(C)c5)n[nH]c4cc3O)ccc21
89 nM | Cc1cccc(Cc2n[nH]c3cc(O)c(C(=O)N(C)c4cccc(Cl)c4)cc23)c1
43 nM | COc1cccc(N(C)C(=O)c2cc3c(Cc4cccc(C)c4)n[nH]c3cc2O)c1
16 nM | Cc1cccc(Cc2n[nH]c3cc(O)c(C(=O)N(C)c4ccc(CNS(C)(=O)=O)cc4)cc23)c1
61.2 nM | Cc1cccc(Cc2n[nH]c3cc(O)c(C(=O)N(C)c4cccc(F)c4)cc23)c1
38.6 nM | Cc1cccc(Cc2n[nH]c3cc(O)c(C(=O)N(C)c4ccc5c(c4)OCCO5)cc23)c1
34.6 nM | Cc1ccccc1-n1c(-c2cc(C(=O)N(C)Cc3cccc(-c4cccnc4)c3)c(O)cc2O)n[nH]c1=O
42 nM | CN(C(=O)c1cc2c(C(=O)N3CCCCC3)n[nH]c2cc1O)c1ccc(N2CCOCC2)cc1
152.9 nM | Cc1cccc(Cc2n[nH]c3cc(O)c(C(=O)N(C)c4ccc(Cl)cc4)cc23)c1
24 nM | COc1ccc(N(C)C(=O)c2cc3c(Cc4cccc(C)c4)n[nH]c3cc2O)cc1
25.4 nM | CC(=O)c1ccc(N(C)C(=O)c2cc3c(Cc4cccc(C)c4)n[nH]c3cc2O)cc1
6.6 nM | CCCCc1n[nH]c2cc(O)c(C(=O)N(C)c3ccc(N4CCOCC4)cc3)cc12
70 nM | Cc1cccc(Cc2n[nH]c3cc(O)c(C(=O)N(C)c4cccc(C)c4)cc23)c1
73 nM | Cc1cccc(Cc2n[nH]c3cc(O)c(C(=O)N(C)c4ccc(F)cc4)cc23)c1
42 nM | CN(C(=O)c1cc2c(CC3CCCCC3)n[nH]c2cc1O)c1ccc(N2CCOCC2)cc1
12 nM | COc1cccc(Cc2n[nH]c3cc(O)c(C(=O)N(C)c4ccc(N5CCOCC5)cc4)cc23)c1
